Data published in patent US20150202243A1, “HDC Activation Inhibitor, HDC Activation Inhibition Composition, Antipruritic Agent, and Antipruritic Agent Composition” (HOYU CO., LTD., priority 2012, published 2015).
Where a name gives a salt, the structure may show the parent alone.

Tested on: SL-induced scratching behavior in mice
Assay: Inhibitory effect against sodium laurate-induced scratching behavior in mice
Format: in vivo, male ICR mice
Settings: topical; for (b) average percentage of the number of scratches for 60 minutes relative to solvent control group taken as 100% / (a) mean plus/minus standard deviation of the number of scratches for 60 minutes: 10% SL 50 μL on rostral back, 90 min later 50 μL of 2.5% by mass test substance in 50% ethanol; for (a) mean plus/minus standard deviation of the number of scratches for 60 minutes: solvent control 80±2; for judgment of effectiveness as HDC activation inhibitor (antipruritic agent); effective if number of scratches is 80% or less of solvent control: 10% SL, 2.5% by mass test substance in 50% ethanol
Method: Test substances were evaluated for their HDC activation inhibitor (antipruritic agent) effect on the basis of their inhibitory effect on mice's scratching behavior induced by irritation with SL. The test substances used were apigenin, luteolin, sterubin, prunetin, tannic acid, chlorogenic acid, resveratrol, diphenhydramine hydrochloride, and d-chlorpheniramine maleate. Among these substances, diphenhydramine hydrochloride and d-chlorpheniramine maleate were conventionally known as antihistamic agents and served as comparative test substances.
Procedure: the test animals used were male ICR mice aged 7-8 weeks. At least 3 days before the test was conducted, the mice were shaved over a 6 cm^2 (2×3 cm) area on the rostral back.
The mice were divided into test substance group (n=3 or 4) and solvent control group (n=3). Fifty microliters of a 10% SL aqueous solution was applied to the rostral back of the mice to induce the mice's scratching behavior. Ninety minutes after the application of the SL solution, fifty microliters of a solution prepared with 50% ethanol to give a test substance concentration of 2.5% by mass was applied to the rostral back of the mice of the test substance group, and fifty microliters of 50% ethanol alone was applied to that of the solvent control group. The scratching behavior in the mice was evaluated by the following procedure.
More specifically, the mice treated as above were housed in acrylic cages (26×18×30 cm) divided into 4 sections, one mouse per section, and after the mice were acclimated for at least 30 minutes in an unattended environment, the behavior of the mice was recorded on video for 60 minutes. The recorded video was reviewed to check for the scratching behavior of the mice and visually count the number of a series of scratching behaviors which consist of an animal scratching the rostral back with a posterior leg and putting down the leg. Additionally, in the untreated group (n=4), the mice shaved on the rostral back but not treated with any of a SL solution, a test substance or 50% ethanol were evaluated for their scratching behavior by the same procedure.
According to these evaluation results, the number of scratches for 60 minutes is about 80 to 90 times in the solvent control, diphenhydramine hydrochloride, and d-chlorpheniramine maleate groups, while that number is about 40 times or less in all the test substance groups from apigenin to resveratrol. Regarding the inhibitory effect of the test substances on the number of scratches in mice, a possible criterion for judgment is that a test substance be judged to be effective as the HDC activation inhibitor (antipruritic agent) of the present invention if the number of scratches in the test substance group is 80% or less of that in the solvent control group.
In addition, with regard to FIG. 4, the values of the following two variables are listed below for each group: (a) the mean plus/minus standard deviation of the number of scratches for 60 minutes, and (b) the average value for the percentage of the number of scratches for 60 minutes in each group relative to that in the solvent control group which is taken as 100%.

| SMILES | (b) average percentage of the number of scratches for 60 minutes relative to solvent control group taken as 100% [%] | (a) mean plus/minus standard deviation of the number of scratches for 60 minutes | judgment of effectiveness as HDC activation inhibitor (antipruritic agent); effective if number of scratches is 80% or less of solvent control |
| --- | --- | --- | --- |
| CN(C)CC[C@@H](c1ccc(Cl)cc1)c1ccccn1.O=C(O)/C=C\C(=O)O [D-chlorpheniramine maleate, d-chlorpheniramine maleate, reference compound] | 113.6 | 91±28 | not certain |
| O=C(/C=C/c1ccc(O)c(O)c1)O[C@@H]1C[C@](O)(C(=O)O)C[C@@H](O)[C@H]1O [Chlorogenic acid, chlorogenic acid] | 50.8 | 41±8 | – |
| COc1cc(O)c2c(c1)O[C@H](c1ccc(O)c(O)c1)CC2=O [Sterubin, sterubin] | 44.4 | 35±14 | – |
| COc1cc(O)c2c(=O)c(-c3ccc(O)cc3)coc2c1 [Prunetin, prunetin] | 52.7 | 42±11 | – |
| Oc1ccc(/C=C/c2cc(O)cc(O)c2)cc1 [Resveratrol, 3,5,4′-trihydroxy-trans-stilbene] | 31.7 | 25±14 | – |
| O=c1cc(-c2ccc(O)cc2)oc2cc(O)cc(O)c12 [Apigenin, apigenin] | 40.5 | 32±5 | – |
| CN(C)CCOC(c1ccccc1)c1ccccc1 [Diphenhydramine hydrochloride, diphenhydramine hydrochloride, reference compound] | 93.8 | 75±25 | not certain |
| O=C(OC[C@H]1O[C@@H](OC(=O)c2cc(O)c(O)c(OC(=O)c3cc(O)c(O)c(O)c3)c2)[C@H](OC(=O)c2cc(O)c(O)c(OC(=O)c3cc(O)c(O)c(O)c3)c2)[C@@H](OC(=O)c2cc(O)c(O)c(OC(=O)c3cc(O)c(O)c(O)c3)c2)[C@@H]1OC(=O)c1cc(O)c(O)c(OC(=O)c2cc(O)c(O)c(O)c2)c1)c1cc(O)c(O)c(OC(=O)c2cc(O)c(O)c(O)c2)c1 [Tannic acid, tannic acid] | 53.7 | 43±22 | – |
| O=c1cc(-c2ccc(O)c(O)c2)oc2cc(O)cc(O)c12 [Luteolin, luteolin] | 43.0 | 34±3 | – |
